# Test results published in patent publication US20100168102A9, “Amide Derivatives as Kinase Inhibitors” (Devgen NV, priority 2005, published 2010).
# What was measured:
# PKC epsilon = target: T1, PKC epsilon (Homo sapiens, UniProt Q02156); test: Biochemical assay for PKC epsilon (fluorescence polarization, Protein Kinase C Assay Kit, Red); conditions: Table 2, compounds of Formula XIII; read-out: IC50 μM PKCε
# T1 construct: purchased Invitrogen P2282
# T1 sequence (Q02156 1-737): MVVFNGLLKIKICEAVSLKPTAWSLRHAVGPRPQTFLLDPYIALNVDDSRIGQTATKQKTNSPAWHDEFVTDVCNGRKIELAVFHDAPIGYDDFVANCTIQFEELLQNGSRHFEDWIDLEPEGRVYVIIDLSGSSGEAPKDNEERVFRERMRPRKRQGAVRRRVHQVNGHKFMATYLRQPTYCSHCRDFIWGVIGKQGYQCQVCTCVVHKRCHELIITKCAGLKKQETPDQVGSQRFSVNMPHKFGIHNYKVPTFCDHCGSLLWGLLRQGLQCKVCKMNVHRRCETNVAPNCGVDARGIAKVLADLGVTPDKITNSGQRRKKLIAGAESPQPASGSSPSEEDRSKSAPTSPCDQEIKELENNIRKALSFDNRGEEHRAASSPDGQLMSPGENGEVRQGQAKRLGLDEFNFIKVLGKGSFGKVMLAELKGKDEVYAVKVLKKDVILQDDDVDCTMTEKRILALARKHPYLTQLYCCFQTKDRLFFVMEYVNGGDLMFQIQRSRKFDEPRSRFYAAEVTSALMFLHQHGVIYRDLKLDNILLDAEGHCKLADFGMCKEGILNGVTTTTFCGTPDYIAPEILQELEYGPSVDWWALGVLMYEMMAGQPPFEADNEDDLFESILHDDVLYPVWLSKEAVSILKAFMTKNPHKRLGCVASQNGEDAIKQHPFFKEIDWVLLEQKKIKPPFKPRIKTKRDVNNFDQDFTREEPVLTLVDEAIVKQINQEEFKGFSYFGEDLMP
# Summary of the method: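 Read-out was fluorescence-polarization competition between phosphorylated substrate and a rhodamine PKC tracer for an anti-phosphoserine antibody, added with EDTA stop after an 80 min room-temperature kinase reaction with ATP and protein substrate (Mg2+/Ca2+ buffer). Enzyme (10 ng/ml final) was preincubated with compound for 30 min.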
# human ROCKα/ROCKII mix = target: T2, human ROCKα/ROCKII mix (Homo sapiens, UniProt O75116); test: Biochemical assay for ROCK (fluorescence polarization, ROCK IMAP Kit); conditions: Table 2, compounds of Formula XIII
# T2 construct: purchased Upstate Biotechnology 14-451
# T2 sequence (O75116 11-552 limits assumed): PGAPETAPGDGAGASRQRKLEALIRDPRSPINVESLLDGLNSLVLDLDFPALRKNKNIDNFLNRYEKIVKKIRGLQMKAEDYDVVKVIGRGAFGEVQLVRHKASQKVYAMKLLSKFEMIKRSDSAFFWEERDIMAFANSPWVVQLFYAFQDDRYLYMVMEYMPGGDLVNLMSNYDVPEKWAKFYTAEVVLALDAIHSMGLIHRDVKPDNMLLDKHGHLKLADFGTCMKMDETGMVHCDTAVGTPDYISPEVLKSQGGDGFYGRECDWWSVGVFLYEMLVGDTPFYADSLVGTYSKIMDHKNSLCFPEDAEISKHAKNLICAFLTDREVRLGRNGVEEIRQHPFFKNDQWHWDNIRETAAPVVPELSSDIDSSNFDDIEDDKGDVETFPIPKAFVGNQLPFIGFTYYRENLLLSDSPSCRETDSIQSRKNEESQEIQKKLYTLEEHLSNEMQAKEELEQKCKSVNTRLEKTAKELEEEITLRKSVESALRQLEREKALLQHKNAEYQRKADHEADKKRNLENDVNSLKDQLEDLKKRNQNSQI
IC50 (PKC epsilon),IC50 (human ROCKα/ROCKII mix),Compound
0.5 to 5 µM,0.5 to 5 µM,"COc1ccccc1C(=O)NCC(N)c1ccc(C(=O)Nc2ccncc2)cc1 (centres unmarked) [Compound 72, 4-[1-amino-2-(2-methoxy-benzoylamino)-ethyl]-N-pyridin-4-yl-benzamide]"
0.5 to 5 µM,0.5 to 5 µM,"COc1cccc(C(=O)NCC(N)c2ccc(C(=O)Nc3ccncc3)cc2)c1 (centres unmarked) [Compound 73, 4-[1-amino-2-(3-methoxy-benzoylamino)-ethyl]-N-pyridin-4-yl-benzamide]"
5 to 50 µM,0.5 to 5 µM,"COc1ccc(C(=O)NCC(N)c2ccc(C(=O)Nc3ccncc3)cc2)cc1 (centres unmarked) [Compound 74, 4-[1-amino-2-(4-methoxy-benzoylamino)-ethyl]-N-pyridin-4-yl-benzamide]"
5 to 50 µM,0.5 to 5 µM,"CCCOc1ccc(C(=O)NCC(N)c2ccc(C(=O)Nc3ccncc3)cc2)cc1 (centres unmarked) [Compound 75, 4-[1-amino-2-(4-propoxy-benzoylamino)-ethyl]-N-pyridin-4-yl-benzamide]"
0.5 to 5 µM,0.5 to 5 µM,"NC(CNC(=O)c1ccccc1Oc1ccccc1)c1ccc(C(=O)Nc2ccncc2)cc1 (centres unmarked) [Compound 76, 4-[1-amino-2-(2-phenoxy-benzoylamino)-ethyl]-N-pyridin-4-yl-benzamide]"
5 to 50 µM,0.5 to 5 µM,"NC(CNC(=O)c1cccc(Oc2ccccc2)c1)c1ccc(C(=O)Nc2ccncc2)cc1 (centres unmarked) [Compound 77, 4-[1-amino-2-(3-phenoxy-benzoylamino)-ethyl]-N-pyridin-4-yl-benzamide]"
5 to 50 µM,0.5 to 5 µM,"NC(CNC(=O)c1ccc(Oc2ccccc2)cc1)c1ccc(C(=O)Nc2ccncc2)cc1 (centres unmarked) [Compound 78, 4-[1-amino-2-(4-phenoxy-benzoylamino)-ethyl]-N-pyridin-4-yl-benzamide]"
0.5 to 5 µM,0.5 to 5 µM,"COc1cc(OC)cc(C(=O)NCC(N)c2ccc(C(=O)Nc3ccncc3)cc2)c1 (centres unmarked) [Compound 79, 4-[1-amino-2-(3,5-dimethoxy-benzoylamino)-ethyl]-N-pyridin-4-yl-benzamide]"
5 to 50 µM,0.05 to 0.5 µM,"NC(CNC(=O)c1ccc2c(c1)OCO2)c1ccc(C(=O)Nc2ccncc2)cc1 (centres unmarked) [Compound 80, Benzo[1,3]dioxole-5-carboxylic acid {2-amino-2-[4-(pyridin-4-ylcarbamoyl)-phenyl]-ethyl}amide]"
5 to 50 µM,0.5 to 5 µM,"CCN(CC)c1ccc(C(=O)NCC(N)c2ccc(C(=O)Nc3ccncc3)cc2)cc1 (centres unmarked) [Compound 81, 4-[1-amino-2-(4-diethylamino-benzoylamino)-ethyl]-N-pyridin-4-yl-benzamide]"
0.5 to 5 µM,0.5 to 5 µM,"NC(CNC(=O)c1ccccc1Nc1ccccc1)c1ccc(C(=O)Nc2ccncc2)cc1 (centres unmarked) [Compound 82, 4-[1-amino-2-(2-phenylamino-benzoylamino)-ethyl]-N-pyridin-4-yl-benzamide]"
5 to 50 µM,0.5 to 5 µM,"CC(=O)Nc1ccc(C(=O)NCC(N)c2ccc(C(=O)Nc3ccncc3)cc2)cc1 (centres unmarked) [Compound 83, 4-[1-amino-2-(4-acetylamino-benzoylamino)-ethyl]-N-pyridin-4-yl-benzamide]"
5 to 50 µM,0.5 to 5 µM,"Cc1ccccc1C(=O)NCC(N)c1ccc(C(=O)Nc2ccncc2)cc1 (centres unmarked) [Compound 84, 4-[1-amino-2-(2-methyl-benzoylamino)-ethyl]-N-pyridin-4-yl-benzamide]"
0.5 to 5 µM,0.5 to 5 µM,"Cc1cccc(C(=O)NCC(N)c2ccc(C(=O)Nc3ccncc3)cc2)c1 (centres unmarked) [Compound 85, 4-[1-amino-2-(3-methyl-benzoylamino)-ethyl]-N-pyridin-4-yl-benzamide]"
5 to 50 µM,0.5 to 5 µM,"Cc1ccc(C(=O)NCC(N)c2ccc(C(=O)Nc3ccncc3)cc2)cc1 (centres unmarked) [Compound 86, 4-[1-amino-2-(4-methyl-benzoylamino)-ethyl]-N-pyridin-4-yl-benzamide]"
0.5 to 5 µM,0.5 to 5 µM,"NC(CNC(=O)c1ccccc1-c1ccccc1)c1ccc(C(=O)Nc2ccncc2)cc1 (centres unmarked) [Compound 87, Biphenyl-2-carboxylic acid {2-amino-2-[4-(pyridin-4-ylcarbamoyl)-phenyl]-ethyl}-amide]"
